Results published in US12616203B2, “Use of 3-isoxazolidinones compounds as selective herbicides” (FMC Corporation, priority 2014, dated 2026).

Experiments:
weeds; Wheat and Barley [1] = assay: Ex41 POST greenhouse; format: in vivo; conditions: rate in the words
Procedure: Treatments were applied to wheat and barley crops.
Nonionic surfactant was added at 0.5% v/v in all treatments. Treatments were applied to wheat (5.5″), barley (5″), wild oat (5.5″), common chickweed (2″), wild buckwheat (3″), and common lambsquarters (2″). All plant species were direct seeded into 3″ plastic pots using metro-mix as growth media and pots were watered well before application and watered 24 h after application. Plants were watered and fertilized routinely after treatment application. Each treatment was replicated four times.

weeds; Wheat and canola = assay: Ex44 PRE greenhouse; format: in vivo; conditions: weed and rate in the words
From the text: Redroot pigweed (Amaranth retroflexus, AMARE), Italian ryegrass (Lolium perenne. multiflorum, LOLMU), wild mustard (Sinapis arvensis, SINAR), annual bluegrass (Poa annua POAAN), wild oat (Avena fatua, AVEFA), blackgrass (Alopecurus myosuroides, ALOMY), common lambsquarters (Chenopodium album, […] (Phalaris minor, PHAMI), common chickweed (Stellaria media, STEME), corn poppy (Papaver rhoeas, PAPRH) and silky […]). Crops tested included wheat and canola. […] Treatments were applied before the emergence of redroot pigweed, Italian ryegrass, wild oat, blackgrass, littleseed canarygrass, common chickweed, common lambsquarters, corn poppy, wild mustard, annual bluegrass, silky […], canola, and wheat. […] Flats were watered and fertilized routinely after treatment application.

Littleseed canarygrass = assay: Ex34 PRE 2,4-DC + napropamide, % control, Colby; format: in vivo, Phalaris minor; conditions: 28 DAT
From the text: (§1) Thereafter flats were watered and fertilized routinely.

Wild oat = assay: Ex32 PRE 2,4-DC + pyroxasulfone + sulfentrazone, % control 28 DAT, Colby; format: in vivo, Avena fatua
From the text: Treatments were applied at the time of planting to Italian ryegrass, green foxtail, littleseed canarygrass, wild oat, quackgrass, dandelion, common chickweed, white clover, yellow nutsedge, redroot pigweed, field bindweed, canola, and wheat. […] Flats were watered and fertilized routinely after treatment application.

Wild buckwheat = assay: Ex34 PRE 2,4-DC + napropamide, % control, Colby; format: in vivo, Polygonum convolvulus; conditions: 28 DAT
From the text: as §1

weeds; Wheat and Barley [2] = assay: Ex14 POST greenhouse; format: in vivo; conditions: 28 DAT, rate in the words
From the text: The study further assessed post crop safety on Wheat and Barley.
Nonionic surfactant at 0.5% (v/v) was included with commercial standards application. No adjuvant was applied with any other treatments. All plant species were direct seeded into 3″ plastic pots using metro-mix as growth media. At treatment application common lambsquarters was 1.75″, common chickweed was 2″, wild mustard was 2.25″, wild oat was 5.5″, wild buckwheat was 2-5″, Italian ryegrass was 2-3″, wheat was 5.5″, and barley was 4.5″ in height. Plants were watered well before application and not watered 24 h after application. Plants were watered and fertilized routinely after treatment application. Each treatment was replicated four times.

canola and wheat = assay: Ex43 PRE crop safety; format: in vivo; conditions: crop and rate in the words
weeds [3] = assay: Ex21 PRE greenhouse; format: in vivo; conditions: 28 DAT, weed and rate in the words
From the text: 2,4 DC (36.7% CS) was applied PRE at 0, 125, 170, 210, or 250 g ai/ha alone or as a tank-mix with S-metolachlor (Dual II Magnum®, 82.4%) at 0, 267, 534, 801, or 1070 g ai/ha. Pyroxasulfone plus fluthiacet-methyl (Anthem™, 23.3%) applied at 169.9 g ai/ha, and the tank-mix of mesotrione (Callisto®, 40%) at 123 g plus S-metolachlor (Dual II Magnum®, 82.4%) at 1252 g were included as standards for comparison. […] Thereafter flats were watered and fertilized routinely. Each treatment was replicated three times.

sedges = assay: Ex26 PRE greenhouse; format: in vivo; conditions: 28 DAT, weed and rate in the words
From the text: Treatments were applied at the time of planting to yellow nutsedge, purple nutsedge, and benghal dayflower. […] Flats were watered and fertilized routinely after treatment application.

weeds; canola, and wheat = assay: Ex39 PRE greenhouse; format: in vivo; conditions: weed and rate in the words
From the text: as §1

weeds; canola = assay: Ex34 PRE greenhouse; format: in vivo; conditions: rate in the words
From the text: as §1

[4] = test system: weeds; Corn (var. Viking); assay: Ex15 PRE greenhouse; format: in vivo; conditions: rate in the words
From the text: The weeds tested in this study were redroot pigweed (Amaranthus retroflexus, AMARE), Jimsonweed (Datura stramonium, DATST), black nightshade (Solanum nigrum, SOLNI), large crabgrass (Digitaria sanguinalis, DIGSA), Pennsylvania smartweed (Polygonum pensylvanicum, POLPY), horseweed (Conyza canadensis, ERICA), wild buckwheat (Polygonum convolvulus, POLCO). The crop tested was Corn (var. Viking).
To determine PRE efficacy and corn injury, five rates of each 2,4 DC (36.7% CS) and S-metolachlor (Dual II Magnum®, 82.4%) were applied either alone or as tank-mix. 2,4 DC was applied at 0, 125, 170, 210, or 250 g ai/ha and S-metolachlor was applied at 0, 267, 534, 801, or 1070 g ai/ha. Additional treatments included application of premix of pyroxasulfone plus fluthiacet-methyl (Anthem™ 23.3%) at 169.9 g ai/ha and tank-mix of mesotrione (Callisto®, 40%) at 123 g plus S-metolachlor at 1252 g. Treatments were applied just after the planting of large crabgrass, Jimsonweed, black nightshade, redroot pigweed, Pennsylvania smartweed, horseweed, wild buckwheat, and corn.
Flats were watered and fertilized routinely after treatment application. Each treatment was replicated three times. […] Corn injury was rated for bleaching and stunting.

weeds [5] = assay: Ex18 PRE greenhouse; format: in vivo; conditions: weed and rate in the words
Annual bluegrass = assay: Ex34 PRE 2,4-DC + napropamide, % control, Colby; format: in vivo, Poa annua; conditions: 28 DAT
From the text: as §1

Wild mustard = assay: Ex35 PRE 2,4-DC + dimethachlor + napropamide, % control 28 DAT, Colby; format: in vivo, Sinapis arvensis
From the text: Crops screened were wheat and canola.

With `CC1(C)CON(Cc2ccc(Cl)cc2Cl)C1=O` [2,4-DC, 2-(2,4-dichlorophenyl)methyl-4,4-dimethyl-3-isoxazolidinone] the “weed control / crop safety in words” value (weeds; Wheat and Barley [1]) was “Wheat was safe with 2,4-DC alone up to 170 g ai/ha, barley was not safe with any rate of 2,4-DC alone”, the “weed control in words” value (weeds; Wheat and canola) was “alone provided control of corn poppy at ≥100 g, Italian ryegrass at ≥200 g, lambsquarters, 400 g, blackgrass at ≥200 g, silky windgrass at ≥100 g and chickweed at all rates” and the X (Littleseed canarygrass; 2,4-DC alone 31 g ai/ha) was 8%. The X (Littleseed canarygrass; 2,4-DC alone 63 g ai/ha) was 12%, the X (Littleseed canarygrass; 2,4-DC alone 125 g ai/ha) was 18% and the X (Littleseed canarygrass; 2,4-DC alone 250 g ai/ha) was 27%. For the same molecule, the X (Littleseed canarygrass; 2,4-DC alone 375 g ai/ha) was 53%, the X (Wild oat; 2,4-DC alone 50 g ai/ha) was 28% and the X (Wild oat; 2,4-DC alone 100 g ai/ha) was 28%. The X (Wild oat; 2,4-DC alone 200 g ai/ha) was 67%, the X (Wild buckwheat; 2,4-DC alone 31 g ai/ha) was 10% and the X (Wild buckwheat; 2,4-DC alone 63 g ai/ha) was 8%. It also gave an X (Wild buckwheat; 2,4-DC alone 125 g ai/ha) of 8%, an X (Wild buckwheat; 2,4-DC alone 250 g ai/ha) of 23% and an X (Wild buckwheat; 2,4-DC alone 375 g ai/ha) of 37%. The “weed control / crop safety in words” value (weeds; Wheat and Barley [2]) was “applied alone did not control any weed in the assay, and was safe at all rates on both wheat and barley”, the “crop safety in words” value (canola and wheat) was “alone was safe (≤10% injury) on canola at ≤200 g ai/ha and safe on wheat at ≤100 g” and the “weed control in words” value (weeds [3]) was “applied alone controlled (≥85% injury) common chickweed at all rates, bamyardgrass at ≥210 g ai/ha, and green foxtail at 250 g”. For the same molecule, the “weed control in words” value (sedges) was “alone did not provide control of sedges at any rate except benghal dayflower at 400 g”, the “weed control in words” value (weeds; canola, and wheat) was “alone at ≥50 g ai/ha controlled (≥85%) Canada thistle, dandelion, or common chickweed” and the “weed control / crop safety in words” value (weeds; canola) was “applied alone at 31.2 g ai/ha controlled common chickweed, at 125 g controlled common lambsquarters and injured canola, at 250 g controlled blackgrass and Italian ryegrass”. The “weed control / crop safety in words” value [4] was “alone controlled large crabgrass at 170 g ai/ha or 250 g and it was safe on corn at all rate”, the “weed control in words” value (weeds [5]) was “controlled goosegrass at ≥170 g ai/ha” and the X (Annual bluegrass; 2,4-DC alone 31 g ai/ha) was 0%. The X (Annual bluegrass; 2,4-DC alone 63 g ai/ha) was 2%, the X (Annual bluegrass; 2,4-DC alone 125 g ai/ha) was 12% and the X (Annual bluegrass; 2,4-DC alone 250 g ai/ha) was 40%. The X (Annual bluegrass; 2,4-DC alone 375 g ai/ha) was 63%, the X (Wild mustard; 2,4-DC alone 50 g ai/ha) was 12% and the X (Wild mustard; 2,4-DC alone 100 g ai/ha) was 37%. The X (Wild mustard; 2,4-DC alone 200 g ai/ha) was 47%.
